# Source: ChEMBL document CHEMBL1151593, “Synthesis and nti-tubulin activity of aza-combretastatins” (Bioorg Med Chem Lett, 1994)
# Target: Tubulin alpha chain (Sus scrofa, UniProt P02550)
# Assay: Evaluated for the inhibitory concentration against porcine brain tubulin polymerization
# Type: functional
# Sequence of Tubulin alpha chain (P02550 whole entry, looked up): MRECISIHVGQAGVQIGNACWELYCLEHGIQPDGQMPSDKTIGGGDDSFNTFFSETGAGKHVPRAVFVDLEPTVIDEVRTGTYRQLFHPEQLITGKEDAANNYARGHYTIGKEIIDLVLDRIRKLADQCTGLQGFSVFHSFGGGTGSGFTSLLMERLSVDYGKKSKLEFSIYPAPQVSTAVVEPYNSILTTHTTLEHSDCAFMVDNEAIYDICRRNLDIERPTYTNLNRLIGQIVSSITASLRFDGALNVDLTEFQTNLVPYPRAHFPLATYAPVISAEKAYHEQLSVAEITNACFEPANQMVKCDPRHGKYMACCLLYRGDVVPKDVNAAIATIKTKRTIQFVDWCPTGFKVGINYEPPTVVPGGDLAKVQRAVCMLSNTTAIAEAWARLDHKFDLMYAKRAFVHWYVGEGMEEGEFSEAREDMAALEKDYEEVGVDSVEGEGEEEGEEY
row,SMILES,IC50
1,COc1ccc(N(CCCCCO)Cc2cc(OC)c(OC)c(OC)c2)cc1O,20 µM
2,COc1ccc(N(C)C(=O)c2cc(OC)c(OC)c(OC)c2)cc1O,> 100 µM
3,COc1ccc(N(CCCC(=O)O)Cc2cc(OC)c(OC)c(OC)c2)cc1O,40 µM
4,COc1ccc(C(=O)N(C)c2cc(OC)c(OC)c(OC)c2)cc1O,> 100 µM
5,CCCCCN(Cc1cc(OC)c(OC)c(OC)c1)c1ccc(OC)c(O)c1,20 µM
6,CCCCN(Cc1cc(OC)c(OC)c(OC)c1)c1ccc(OC)c(O)c1,7.5 µM
7,COc1ccc(N(Cc2cc(OC)c(OC)c(OC)c2)C(C)=O)cc1O,> 100 µM
8,CCN(Cc1cc(OC)c(OC)c(OC)c1)c1ccc(OC)c(O)c1,15 µM
9,CCCCCCN(Cc1cc(OC)c(OC)c(OC)c1)c1ccc(OC)c(O)c1,20 µM
10,CCCN(Cc1cc(OC)c(OC)c(OC)c1)c1ccc(OC)c(O)c1,5.4 µM
11,CCC(=O)N(Cc1cc(OC)c(OC)c(OC)c1)c1ccc(OC)c(O)c1,> 100 µM

# Next, values leading:
row,IC50,SMILES
1,> 100 µM,COc1ccc(NC(=O)c2cc(OC)c(OC)c(OC)c2)cc1O
2,100 µM,COc1ccc(CN(C)c2cc(OC)c(OC)c(OC)c2)cc1O
3,100 µM,COc1ccc(NCc2cc(OC)c(OC)c(OC)c2)cc1O
4,100 µM,COc1ccc(CNc2cc(OC)c(OC)c(OC)c2)cc1O
5,> 100 µM,COc1ccc(C(=O)Nc2cc(OC)c(OC)c(OC)c2)cc1O
6,45 µM,COc1ccc(N(C)Cc2cc(OC)c(OC)c(OC)c2)cc1O
